Several values for one entry are separate records, joined by “and”; a condition that tells them apart may be missing. Identical values can stand only once.

The source of these data is paper PMC10933169, “Potent anticancer activity of (Z)-3-hexenyl-β-D-glucopyranoside in pancreatic cancer cells” (Naunyn-Schmiedeberg's Archives of Pharmacology, 2023).

Common to all, as to assay type: cell-based
The test system of data set [1] is Panc1 (pancreatic carcinoma) cells. The experiment in a line: MTT cytotoxicity assay, Panc1. To be noted: Homo sapiens, PANC-1, 48 h treatment. The protocol: (§1) The cell lines PANC-1 (pancreatic carcinoma), MCF7 (breast carcinoma), HepG2 (hepatocellular carcinoma), and WI-38 (normal lung fibroblast cells) were obtained from the American Type Culture Collection (ATCC) located in Manassas, Virginia, United States. These cell lines were cultured in DMEM (Invitrogen, Life Technologies, Rockville, MD, USA) medium supplemented with 10% FBS (Fetal Bovine Serum, Hyclone, Thermo Fisher Scientific, Waltham, MA, USA) and 1% penicillin (Sigma-Aldrich, Louis, MO, USA). The cells were maintained at 37°C in a 5% CO2 and 95% humidity environment for a maximum period of two weeks to ensure their viability for further experimentation. Cell detachment was achieved using a solution containing 0.25% (w/v) trypsin (Sigma-Aldrich, Louis, MO, USA) and 0.53 mM EDTA ((Sigma-Aldrich, Louis, MO, USA), followed by re-cultivation in fresh media.
The cultivated cells were seeded in 96-well plates at a concentration of 1 × 10^4 cells/100 μL per well (Naik et al. [2014]). The cultured plates were then incubated for 24 hours at 37°C. […] The tested concentrations of the compounds (1, 10, 30, and 100 µg/mL) in 0.01 - 0.1% DMSO in ddH2O were prepared by diluting the stock solutions with double-distilled water (ddH2O). […] A negative control using 0.1% DMSO in ddH2O was also included. The treated cells were further incubated for 48 hours at 37 °C. The media of the treated and control plates were removed and replaced by fresh media containing MTT (Sigma, Louis, MO, USA) reagent in a concentration of 1 mg/mL (Ponnusamy et al. [2016]), then incubated for 2 hours. The viability of the cancer cells was determined by measuring the amount of formazan formed by viable cells. […] The intensity of the produced colour was measured using an ELISA plate reader (Bio-Tek EL 800, Agilent technology, Santa Clara, CA, USA) at wavelength of 570 nm. The percent of cells viability was calculated by the following equation: %viability=AA570oftreated-AA570ofblank/AA570ofcontrol-AA570ofblank×100
(§2) AA Average of triplicate absorbances for each sample concentration

The test system of data set [2] is Casp3 gene expression in Panc1 cells. The experiment in a line: SYBR Green RT-PCR gene expression, caspase3. The conditions noted are these: 48 h, (Z)-3-hexenyl-β-D-glucopyranoside at 10 µM, control 1. Here is the method:
(§3) The effects of 10 µM of (Z)-3-hexenyl-β-D-glucopyranoside on the mRNA expression of caspase3, bax, and Bcl-2 genes were investigated using the reverse transcription-polymerase […] technique. After a 48-hour incubation of (Z)-3-hexenyl-β-D-glucopyranoside in Panc1 (pancreatic carcinoma) cells, mRNA isolation of the selected proteins was performed using the RN easy extraction kit (Qiagen, Hilden, Germany), following previously described methods (Janicke et al. [1998]). For real-time quantitative PCR of the RNA templates, a one-step RT-PCR kit with SYBR® Green (Bio-Rad SYBR Green PCR MMX, Hercules, California, USA) was added to a 25 μL 2X SYBR® Green RT-PCR reaction mix (Bio-Rad, Hercules, California, USA). The reaction mix contained 2X reaction buffer with 0.4 mM of each dNTP, magnesium chloride, iTaq DNA polymerase, 20 nM fluorescein SYBR® Green I dye, stabilizers, 11 μL nuclease-free water, 1.5 μL reverse primer (10 μM), 1.5 μL forward primer (10 μM), 1 μL iScript reverse transcriptase, and RNA template (1 pg to 100 ng total RNA). The cDNA synthesis and PCR amplifications were performed in the same tube using Rotor-Gene RT-PCR (Qiagen, Hilden, Germany) software 1.7 (Abed et al. [2021]). The primers used in the RT-PCR reaction were obtained from Corbett Life Science Division (Reg. No. QEC21313), Corbett Research, Mortlake, Australia. […]

Data set [3] relates to WI-38 (normal lung fibroblast cells). The experiment in a line: MTT cytotoxicity assay, WI-38 normal cells. The conditions noted are these: 48 h treatment, read-out: Cytotoxicity IC50 WI38. The protocol: as §1, with “Cell detachment was achieved using a solution containing 0.25% (w/v) trypsin (Sigma-Aldrich, Louis, MO, USA) and 0.53 mM EDTA ((Sigma-Aldrich, Louis, MO, USA), followed by re-cultivation in fresh media.” left out
(§4) The cultivated cells were seeded in 96-well plates at a concentration of 1 × 10^4 cells/100 μL per well (Naik et al. [2014]). […] The viability of the cancer cells was determined by measuring the amount of formazan formed by viable cells. […] The intensity of the produced colour was measured using an ELISA plate reader (Bio-Tek EL 800, Agilent technology, Santa Clara, CA, USA) at wavelength of 570 nm. The percent of cells viability was calculated by the following equation: %viability=AA570oftreated-AA570ofblank/AA570ofcontrol-AA570ofblank×100
as §2

Data set [4] can be described thus: MTT cytotoxicity assay, WI-38 normal cells. The conditions noted are these: human, WI-38 normal lung fibroblast cells, 48 h treatment, read-out: Cytotoxicity IC50 WI38. The protocol:
as §1, with “Cell detachment was achieved using a solution containing 0.25% (w/v) trypsin (Sigma-Aldrich, Louis, MO, USA) and 0.53 mM EDTA ((Sigma-Aldrich, Louis, MO, USA), followed by re-cultivation in fresh media.” left out
as §4, §2

Data set [5] concerns Bax gene expression in Panc1 cells. The experiment in a line: SYBR Green RT-PCR gene expression, Bax. To be noted: 48 h, (Z)-3-hexenyl-β-D-glucopyranoside at 10 µM, control 1.436. Here is the method: as §3
Data set [6] deals with Panc1 cells. The experiment in a line: Flow cytometry analysis of cell DNA contents / cell cycle (propidium iodide). To be noted: 10 µM. Here is the method:
All reagents and kits for this assay were obtained from Abcam (Abcam Technology, Boston, MA, USA). The detection of DNA cell contents and cell cycle status was conducted following the established method (Xu et al. [2001]). To provide a brief overview, Panc1 pancreatic cancer cells (ATCC, Manassas, Virginia, USA) were cultured in a single-cell suspension in DMEM medium (Invitrogen, Life Technologies, Rockville, MD, USA). Subsequently, the cells were fixed in 66% ethanol (Sigma-Aldrich, Louis, MO, USA) and kept on ice for 2 hours. Afterward, the cancer cells were washed with a PBS (Sigma-Aldrich, Louis, MO, USA) solution (5 mL of 10X PBS + 45 mL water), re-cultured in fresh medium, and incubated at 37 °C for 24 hours. A concentration of 10 µM of (Z)-3-hexenyl-β-D-glucopyranoside was added in triplicate, chosen based on previously reported data (Ponnusamy et al. [2016]; Xu et al. [2001]) for 24h. The second dose of 10 µM of (Z)-3-hexenyl-β-D-glucopyranoside was added to the Panc1 cells then incubated for 24 h. Following a 48-hour incubation period from the first dose, the cells were trypsinized, fixed, and stained with propidium iodide-RNase enzyme reagent (9.45 mL PBS + 500 μL 20X propidium iodide + 50 μL 200X RNase) from Abcam Technology, Boston, MA, USA. […] The incubation time for fluorescence quantification was 30 minutes. The experiment was repeated twice.

The subject of data set [7] is MCF7 (breast carcinoma) cells. The experiment in a line: MTT cytotoxicity assay, MCF7. To be noted: Homo sapiens, 48 h treatment. The protocol: as §1, with “Cell detachment was achieved using a solution containing 0.25% (w/v) trypsin (Sigma-Aldrich, Louis, MO, USA) and 0.53 mM EDTA ((Sigma-Aldrich, Louis, MO, USA), followed by re-cultivation in fresh media.” left out
as §4, §2

The subject of data set [8] is Panc1 cells. The experiment in a line: Annexin V-FITC cellular apoptotic assay. The conditions noted are these: 10 µM, 48 h. The protocol:
The reagents used in this assay included the Annexin V-FITC kit (Abcam Technology, Boston, MA, USA), 1X binding buffer (Abcam Technology, Boston, MA, USA), and propidium iodide (Bio Vision Research Products, Mountain View, CA, USA). Panc1 cells were seeded in 6-well plates and incubated at 37 °C for 24 hours. Compound 1 ((Z)-3-hexenyl-β-D-glucopyranoside) was then added to the cultivated Panc1 6-well plates at a concentration of 10 µM and incubated for 48 hours. Subsequently, the cancer cells were trypsinized and centrifuged for 10 minutes at 300 rpm. The resulting precipitate was resuspended in 500 µL of 1X binding buffer. Annexin V-FITC (5 µL) and propidium iodide (5 µL) reagents were added to the treated cancer cell plates and incubated for 5 minutes in the dark at room temperature. A flow cytometer (Novocyte, Agilent technology, Santa Clara, CA, USA) with an excitation maximum of 488 nm and an emission maximum of 530 nm was employed to measure the intensity of annexin-binding phosphatidylserine (PS) and consequently determine the amount of apoptotic cells (Koopman et al. [1994]).

The test system of data set [9] is Bcl-2 gene expression in Panc1 cells. The experiment in a line: SYBR Green RT-PCR gene expression, Bcl-2. To be noted: 48 h, (Z)-3-hexenyl-β-D-glucopyranoside at 10 µM, control 1. Here is the method:
as §3

Data set [10] relates to HepG2 (hepatocellular carcinoma) cells. The experiment in a line: MTT cytotoxicity assay, HepG2. To be noted: Homo sapiens, 48 h treatment. The protocol: as §1, with “Cell detachment was achieved using a solution containing 0.25% (w/v) trypsin (Sigma-Aldrich, Louis, MO, USA) and 0.53 mM EDTA ((Sigma-Aldrich, Louis, MO, USA), followed by re-cultivation in fresh media.” left out
as §4, §2

`O=C(O)c1cc(O)c(O)c(O)c1` [Gallic acid] came in with an IC50 in data set [1] of 21.8 µM.
Regarding `CCC=CCCOC1OC(CO)C(O)C(O)C1O` [Compound 1, (Z)-3-hexenyl-β-D-glucopyranoside], the “RT-PCR results fold change Casp3” value in data set [2] was 4.064 fold. The 50% inhibitory concentration (IC50) is 195 µM in data set [3], 109 µM in data set [7], 7.6 µM in data set [1] and 45.8 µM in data set [10]. Also, the IC50 at 48 h in data set [4] amounted to 194 µM. For the same molecule, the “RT-PCR results fold change Bax” value in data set [5] was found to be 3.173 fold. In addition, the “Cell cycle effect (Comment)” value in the data set with Panc1 cells [6] is given as “cell growth arrest at the S phase”; with Panc1 cells [6] (listed as E-W-4) it was “Cell growth arrest@ S phase”. The “DNA content %G2/M” value with Panc1 cells [6] (control 10.47) came to 3.38%. In addition, the “DNA content %S” value with Panc1 cells [6] (control 32.11) came to 44.01%. The “DNA content %G0-G1” value with Panc1 cells [6] (control 57.42) is listed as 52.61%. Also, the Necrosis with Panc1 cells [8] came out at 5.52%. In the data set with Panc1 cells [8] (control 0.28%), the “Apoptosis Late” value is on record as 9.85%. The “Apoptosis Early” value in the data set with Panc1 cells [8] (control 0.47%) is given as 26.15%. The “Apoptosis Total” value with Panc1 cells [8] (control 1.86%) is 42% and 41.52%. Moreover, the “RT-PCR results fold change Bcl-2” value in [9] is 0.231 fold.
As for `Oc1cccc(O)c1O` [Pyrogallol], in [1], the IC50 is 198 µM.
